MIC data for 11 compounds are collected here from patent US9321788B2, “Tricyclic antibiotics” (BASILEA PHARMACEUTICA AG, priority 2011, dated 2016).

The test system of test [1] is Streptococcus pneumoniae ATCC49619. Briefly: Antimicrobial activity assay (MIC, broth microdilution, CAMHB with 5% horse serum). Format: cell-based. On the procedure: (§1) Antimicrobial Activity Assay
(§2) The antibacterial activity of compounds is determined by the minimal inhibitory concentration (MIC) method. MICs for all bacteria except pneumococci and Haemophilus influenzae are obtained by broth microdilution with cation-adjusted Mueller-Hinton broth (CAMHB; BBL), according to CLSI guidelines (National Committee for Clinical Laboratory Standards. 2003. Methods for dilution antimicrobial susceptibility tests for bacteria that grow aerobically, 5th ed.; a approved standard M7-A6. National Committee for Clinical Laboratory Standards, Wayne, Pa.), with the following modifications: (i) for pneumococci CAMHB is supplemented with 5% (^v/v) horse serum; (ii) for Haemophilus influenzae CAMHB is supplemented with 5% (^v/v) Fildes enrichment (BBL) (Pankuch, G. A., Hoellman, D. B., Lin, G., Bajaksouzian, S., Jacobs, M. R., and Appelbaum, P. C. 1998. Activity of HMR 3647 compared to those of five agents against Haemophilus influenzae and Moraxella catarrhalis by MIC determination and time-kill assay. Antimicrob. Agents Chemother. 42:3032-3034). Microtiter plates are incubated at 35° C. in ambient air for 20 to 24 h, then inspected using an illuminated microtiter plate reader fitted with a magnifying mirror (MIC 2000; Cooke Laboratory Products, Alexandria, Va.). Compounds of the present invention are tested against several bacteria strains comprising some Acinetobacter baumannii, Enterococcus faecalis, Enterococcus faecium, Escherichia coli, Haemophilus influenzae, Klebsiella pneumoniae, Pseudomonas aeruginosa, Staphylococcus aureus, Staphylococcus epidermidis, Streptococcus pyogenes; Enterobacter cloacae and Streptococcus pneumoniae.

For test [2], the system named is Escherichia coli ATCC25922. Briefly: Antimicrobial activity assay (MIC, broth microdilution). Format: cell-based. On the procedure:
as §1
as §2, with “Compounds of the present invention are tested against several bacteria strains comprising some Acinetobacter baumannii, Enterococcus faecalis, Enterococcus faecium, Escherichia coli, Haemophilus influenzae, Klebsiella pneumoniae, Pseudomonas aeruginosa, Staphylococcus aureus, Staphylococcus epidermidis, Streptococcus pyogenes; Enterobacter cloacae and Streptococcus pneumoniae.” left out
On the technique in general: Dilution methods test growth across graded concentrations, often in twofold steps.

With `COc1ccc2ncc3c(c2c1)CC(Cn1cc(NC(=O)c2ccc4c(c2)NC(=O)CS4)cn1)CO3` (stereo not drawn) [Example 31, 3-oxo-3,4-dihydro-2H-benzo[1,4]thiazine-6-carboxylic acid [1-(6-methoxy-3,4-dihydro-2H-1-oxa-9-aza-phenanthren-3-ylmethyl)-1H-pyrazol-4-yl]-amide], the MIC in test [1] was ≤ 8 µg/mL. Still for that read-out and setting: the value for `COc1ccc2ncc3c(c2c1)CC(CN1CC(NC(=O)c2ccc4c(c2)NC(=O)CS4)CC1CO)CS3` (stereo not drawn) [Example 51, 3-oxo-3,4-dihydro-2H-benzo[1,4]thiazine-6-carboxylic acid [5-hydroxymethyl-1-(6-methoxy-3,4-dihydro-2H-1-thia-9-aza-phenanthren-3-ylmethyl)-pyrrolidin-3-yl]-amide] was ≤ 8 µg/mL; that for `COc1ccc2ncc3c(c2n1)CC(CN1CCC(NC(=O)c2ccc4c(c2)NC(=O)CS4)CC1)O3` (stereo not drawn) [Example 54, 3-oxo-3,4-dihydro-2H-benzo[1,4]thiazine-6-carboxylic acid [1-(8-methoxy-1,2-dihydro-3-oxa-5,9-diaza-cyclopenta[a]naphthalen-2-ylmethyl)-piperidin-4-yl]-amide] was ≤ 8 µg/mL; that for `COc1ccc2ncc3c(c2c1)CC(C(O)[C@H]1CC[C@H](NC(=O)c2ccc4c(c2)NC(=O)CS4)CC1)O3` (relative stereo) [Example 59, 3-oxo-3,4-dihydro-2H-benzo[1,4]thiazine-6-carboxylic acid {trans-4-[hydroxy-(8-methoxy-1,2-dihydro-furo[2,3-c]quinolin-2-yl)-methyl]-cyclohexyl}-amide] was ≤ 8 µg/mL. Take `COc1ccc2ncc3c(c2n1)CC(CN1CCC(NC(=O)c2ccc4c(c2)NC(=O)CS4)CC1)CO3` (stereo not drawn) [Example 1, 3-oxo-3,4-dihydro-2H-benzo[1,4]thiazine-6-carboxylic acid [1-(6-methoxy-3,4-dihydro-2H-1-oxa-5,9-diaza-phenanthren-3-ylmethyl)-piperidin-4-yl]-amide]: the minimal inhibitory concentration (MIC) in test [1] and in test [2] was ≤ 8 µg/mL in each case. Regarding `COc1ccc2ncc3c(c2c1)CC(CN1CC(NC(=O)c2ccc4c(c2)NC(=O)CS4)C1)CS3` (stereo not drawn) [Example 49, 3-oxo-3,4-dihydro-2H-benzo[1,4]thiazine-6-carboxylic acid [1-(6-methoxy-3,4-dihydro-2H-1-thia-9-aza-phenanthren-3-ylmethyl)-azetidin-3-yl]-amide], in test [1], the minimal inhibitory concentration (MIC) was ≤ 8 µg/mL. With `COc1ccc2ncc3c(c2c1)CC(CN1CCC(NC(=O)c2ccc4c(c2)NC(=O)CS4)CC1)O3` (stereo not drawn) [Example 55, 3-oxo-3,4-dihydro-2H-benzo[1,4]thiazine-6-carboxylic acid [1-(8-methoxy-1,2-dihydro-furo[2,3-c]quinolin-2-ylmethyl)-piperidin-4-yl]-amide], the MIC in test [1] is ≤ 8 µg/mL.

As to `COc1ccc2ncc3c(c2c1F)CC(CN1CCC(NC(=O)c2ccc4c(c2)NC(=O)CS4)CC1)CO3` (stereo not drawn) [Example 45, 3-oxo-3,4-dihydro-2H-benzo[1,4]thiazine-6-carboxylic acid [1-(5-fluoro-6-methoxy-3,4-dihydro-2H-1-oxa-9-aza-phenanthren-3-ylmethyl)-piperidin-4-yl]-amide], the minimal inhibitory concentration (MIC) in test [1] was ≤ 8 µg/mL. In the case of `COc1ccc2ncc3c(c2c1)OC(CN1CC(NC(=O)c2ccc4c(c2)NC(=O)CS4)C1)C3` (stereo not drawn) [Example 39, 3-oxo-3,4-dihydro-2H-benzo[1,4]thiazine-6-carboxylic acid [1-(8-methoxy-2,3-dihydro-furo[3,2-c]quinolin-2-ylmethyl)-azetidin-3-yl]-amide], the MIC in test [1] is ≤ 8 µg/mL. On to `COc1ccc2ncc3c(c2c1)CC(C[C@H]1CC[C@H](NC(=O)c2ccc4c(c2)NC(=O)CO4)CC1)CO3` (relative stereo) [Example 36, 3-oxo-3,4-dihydro-2H-benzo[1,4]oxazine-6-carboxylic acid [trans-4-(6-methoxy-3,4-dihydro-2H-1-oxa-9-aza-phenanthren-3-ylmethyl)-cyclohexyl]-amide], for which the MIC in test [1] is ≤ 8 µg/mL.

With `COc1ccc2ncc3c(c2c1)CC(CN1CCC(NCc2ccc4c(c2)NC(=O)CS4)CC1)CO3` (stereo not drawn) [Example 34, 6-{[1-(6-methoxy-3,4-dihydro-2H-1-oxa-9-aza-phenanthren-3-ylmethyl)-piperidin-4-ylamino]-methyl}-4H-benzo[1,4]thiazin-3-one], in test [1], the minimal inhibitory concentration (MIC) is ≤ 8 µg/mL.

A word on the MIC: it is the least concentration at which growth counts as inhibited. Lower therefore signals a more susceptible organism.
